# Experimental data: ChEMBL document CHEMBL4665629, “An optimised series of substituted N-phenylpyrrolamides as DNA gyrase B inhibitors” (Eur J Med Chem, 2019)
# Legend:
# Escherichia coli [1] = assay: Antibacterial activity against efflux pump d effect ive Escherichia coli JW5503 harbouring tolC mutant assessed as bacterial growth inhibition at 50 uM incubated for 24 hrs by CLSI protocol based broth microdilution assay relative to control; format: functional
# Staphylococcus aureus [2] = assay: Antibacterial activity against Staphylococcus aureus ATCC 29213 assessed as bacterial growth inhibition at 50 uM incubated for 24 hrs by CLSI protocol based broth microdilution assay relative to control; format: functional
# [3] = target: DNA gyrase (Escherichia coli) (UniProt P0AES6+P0AES4); assay: Inhibition of Escherichia coli DNA gyrase assessed as residual activity at 1 uM using biotinylated oligonucleotide as substrate incubated for 30 mins in presence of ATP by fluorescence-based microplate reader assay relative to control; format: protein-complex assay
# Klebsiella pneumoniae [4] = assay: Antibacterial activity against Klebsiella pneumoniae ATCC 700603 assessed as bacterial growth inhibition at 50 uM incubated for 24 hrs by CLSI protocol based broth microdilution assay relative to control; format: functional
# Klebsiella aerogenes [5] = assay: Antibacterial activity against Enterobacter aerogenes ATCC 13408 assessed as bacterial growth inhibition at 50 uM incubated for 24 hrs by CLSI protocol based broth microdilution assay relative to control; format: functional
# Enterococcus faecalis [6] = assay: Antibacterial activity against Enterococcus faecalis ATCC 29212 assessed as minimum inhibitory concentration required for >=90% inhibition of bacterial growth by CLSI protocol based broth microdilution assay; format: functional
# Pseudomonas aeruginosa = assay: Antibacterial activity against Pseudomonas aeruginosa ATCC 27853 assessed as bacterial growth inhibition at 50 uM incubated for 24 hrs by CLSI protocol based broth microdilution assay relative to control; format: functional
# Escherichia coli [7] = assay: Antibacterial activity against outer membrane impaired Escherichia coli JD17464 harboring lpxC mutant assessed as bacterial growth inhibition at 50 uM incubated for 24 hrs by CLSI protocol based broth microdilution assay relative to control; format: functional
# Enterococcus faecalis [8] = assay: Antibacterial activity against Enterococcus faecalis ATCC 29212 assessed as bacterial growth inhibition at 50 uM incubated for 24 hrs by CLSI protocol based broth microdilution assay relative to control; format: functional
# Acinetobacter baumannii [9] = assay: Antibacterial activity against Acinetobacter baumannii ATCC 19606 assessed as bacterial growth inhibition at 50 uM incubated for 24 hrs by CLSI protocol based broth microdilution assay relative to control; format: functional; details: ATCC 19606 = CIP 70.34 = JCM 6841
# Enterococcus faecium [10] = assay: Antibacterial activity against Enterococcus faecium ATCC 35667 assessed as bacterial growth inhibition at 50 uM incubated for 24 hrs by CLSI protocol based broth microdilution assay relative to control; format: functional
# Escherichia coli [11] = assay: Antibacterial activity against Escherichia coli ATCC 25922 assessed as bacterial growth inhibition at 50 uM incubated for 24 hrs by CLSI protocol based broth microdilution assay relative to control; format: functional
# [12] = target: DNA gyrase (Staphylococcus aureus) (UniProt P0A0K8+P20831); assay: Inhibition of Staphylococcus aureus DNA gyrase assessed as residual activity at 1 uM using biotinylated oligonucleotide as substrate incubated for 30 mins in presence of ATP by fluorescence-based microplate reader assay relative to control; format: protein-complex assay
# [13] = target: Topoisomerase IV (Staphylococcus aureus) (UniProt P0C1U9+P0C1S7); assay: Inhibition of Staphylococcus aureus DNA topoisomerase 4 assessed as residual activity at 1 uM using biotinylated oligonucleotide as substrate incubated for 30 mins in presence of ATP by fluorescence-based microplate reader assay relative to control; format: protein-complex assay
# Staphylococcus aureus [14] = assay: Antibacterial activity against Staphylococcus aureus ATCC 29213 assessed as minimum inhibitory concentration required for >=90% inhibition of bacterial growth by CLSI protocol based broth microdilution assay; format: functional
# Escherichia coli [15] = assay: Antibacterial activity against efflux pump d effect ive Escherichia coli JW5503 harbouring tolC mutant assessed as minimum inhibitory concentration required for >=90% inhibition of bacterial growth by CLSI protocol based broth microdilution assay; format: functional
# [16] = Inhibition of Escherichia coli DNA topoisomerase 4 assessed as residual activity at 1 uM using biotinylated oligonucleotide as substrate incubated for 30 mins in presence of ATP by fluorescence-based microplate reader assay relative to control
# DNA gyrase [17] = target: DNA gyrase (Escherichia coli, UniProt P0AES4+P0AES6); assay: Inhibition of Escherichia coli DNA gyrase using biotinylated oligonucleotide as substrate incubated for 30 mins in presence of ATP by fluorescence-based microplate reader assay; format: protein-complex assay
# [18] = Cytotoxicity against HUVEC assessed as reduction in cell proliferation at 50 uM after 72 hrs by MTS assay relative to control; format: cell-based; details: human, HUVEC cells, read-out: Activity
# [19] = Cytotoxicity against human HepG2 cells assessed as reduction in cell proliferation at 50 uM after 72 hrs by MTS assay relative to control; format: cell-based; details: read-out: Activity
# Topoisomerase IV = Topoisomerase IV (Staphylococcus aureus, UniProt P0C1S7+P0C1U9); assay: Inhibition of Staphylococcus aureus DNA topoisomerase 4 using biotinylated oligonucleotide as substrate incubated for 30 mins in presence of ATP by fluorescence-based microplate reader assay; format: protein-complex assay
# [20] = Inhibition of Escherichia coli DNA topoisomerase 4 using biotinylated oligonucleotide as substrate incubated for 30 mins in presence of ATP by fluorescence-based microplate reader assay
# DNA gyrase [21] = target: DNA gyrase (Staphylococcus aureus, UniProt P0A0K8+P20831); assay: Inhibition of Staphylococcus aureus DNA gyrase using biotinylated oligonucleotide as substrate incubated for 30 mins in presence of ATP by fluorescence-based microplate reader assay; format: protein-complex assay
# Enterococcus faecium [22] = assay: Antibacterial activity against Enterococcus faecium ATCC 35667 assessed as minimum inhibitory concentration required for >=90% inhibition of bacterial growth by CLSI protocol based broth microdilution assay; format: functional
# Klebsiella pneumoniae [23] = assay: microbe, parasite or virus in culture; details: 700603
# Escherichia coli [24] = assay: Antibacterial activity against Escherichia coli MG1655 harboring […] mutant assessed as minimum inhibitory concentration required for >=90% inhibition of bacterial growth in presence of 50 ug/ml phenylalanine-arginine beta-naphthylamide; format: functional
# Escherichia coli [25] = assay: Antibacterial activity against Escherichia coli MG1655 harboring […]/D87N mutant assessed as minimum inhibitory concentration required for >=90% inhibition of bacterial growth in presence of 50 ug/ml phenylalanine-arginine beta-naphthylamide; format: functional
# Klebsiella aerogenes [26] = assay: microbe, parasite or virus in culture; details: ATCC 13408
# Escherichia coli [27] = assay: Antibacterial activity against Escherichia coli MG1655 harboring […]/D87N and ParC S80I mutants assessed as minimum inhibitory concentration required for >=90% inhibition of bacterial growth in presence of 50 ug/ml phenylalanine-arginine beta-naphthylamide; format: functional
# Acinetobacter baumannii [28] = assay: microbe, parasite or virus in culture; details: ATCC 19606 = CIP 70.34 = JCM 6841
# Escherichia coli [29] = assay: Antibacterial activity against Escherichia coli MG1655 harboring […]/D87N and ParC S80I/E84G mutants assessed as minimum inhibitory concentration required for >=90% inhibition of bacterial growth in presence of 50 ug/ml phenylalanine-arginine beta-naphthylamide; format: functional
# Escherichia coli [30] = assay: Antibacterial activity against Escherichia coli MG1655 harboring GyrB R136C mutant assessed as minimum inhibitory concentration required for >=90% inhibition of bacterial growth in presence of 50 ug/ml phenylalanine-arginine beta-naphthylamide; format: functional
SMILES,inhibition at 50 µM (Escherichia coli [1]) [%],inhibition at 50 µM (Staphylococcus aureus [2]) [%],inhibition at 50 µM (Klebsiella pneumoniae [4]) [%],inhibition at 50 µM (Klebsiella aerogenes [5]) [%],MIC (Enterococcus faecalis [6]) [µM],inhibition at 50 µM (Pseudomonas aeruginosa) [%],inhibition at 50 µM (Escherichia coli [7]) [%],inhibition at 50 µM (Enterococcus faecalis [8]) [%],inhibition at 50 µM (Acinetobacter baumannii [9]) [%],inhibition at 50 µM (Enterococcus faecium [10]) [%],inhibition at 50 µM (Escherichia coli [11]) [%],Activity [12] [%],Activity [16] [%],IC50 (DNA gyrase [17]) [nM],"inhibition at 72 h, 50 µM [18] [%]","inhibition at 72 h, 50 µM [19] [%]",MIC (Enterococcus faecium [22]) [µM],other results
Cc1[nH]c(C(=O)Nc2ccc(C(=O)N[C@H](C)C(=O)NN)cc2OC(C)C)c(Cl)c1Cl,38,46,14,16,12.5,-2,31,85,25,49,21,,,,,,,Activity [3]: 89%
Cc1[nH]c(C(=O)Nc2ccc(-n3nn[nH]c3=O)cc2)c(Cl)c1Cl,100,99,-2,-2,12.5,-3,-1,99,1,53,3,47,94,77,,,,Activity [13]: 85%; MIC (Staphylococcus aureus [14]): 50 µM; MIC (Escherichia coli [15]): 3.13 µM
CCOC(=O)c1cn(CC)c2cc(NC(=O)c3[nH]c(C)c(Cl)c3Cl)ccc2c1=O,11,-3,9,5,,-3,-2,-7,3,37,12,,,53,88,90,,
Cc1[nH]c(C(=O)Nc2ccc(C(=O)NCC(=O)O)cc2O[C@H]2CCNC2)c(Cl)c1Cl,-1,-6,-3,-11,,-28,18,,-1,14,11,,,31,130,46,,IC50 (Topoisomerase IV): 4300 nM; IC50 [20]: 16 µM; IC50 (DNA gyrase [21]): 290 nM
Cc1[nH]c(C(=O)Nc2ccc(C(=O)N[C@@H](C)C(=O)O)cc2OC2CCN(C(=O)OC(C)(C)C)CC2)c(Cl)c1Cl,1,-23,-19,-5,,19,19,,0,67,2,26,88,80,,,> 25,IC50 (Topoisomerase IV): 830 nM
O=C(O)c1cn(C2CC2)c2cc(N3CCNCC3)c(F)cc2c1=O [CIPROFLOXACIN],,,,,,,,,,,,,,,,,,MIC (Klebsiella pneumoniae [23]): 0.05 µM; MIC (Escherichia coli [24]): 0.01 µM; MIC (Escherichia coli [25]): 0.19 µM; MIC (Klebsiella aerogenes [26]): 0.113 µM; MIC (Escherichia coli [27]): 8 µM; MIC (Acinetobacter baumannii [28]): 3.62 µM; MIC (Escherichia coli [29]): > 32 µM; MIC (Escherichia coli [30]): 0.01 µM
Cc1[nH]c(C(=O)Nc2ccc(C(=O)NCC#N)cc2)c(Cl)c1Cl,102,4,4,1,25,30,-8,92,0,-17,0,,,410,,,,MIC (Escherichia coli [15]): 12.5 µM
Cc1[nH]c(C(=O)Nc2ccc(C(=O)N[C@H](C)c3n[nH]c(=S)o3)cc2OC(C)C)c(Cl)c1Cl,40,7,5,10,6.25,1,1,101,6,79,21,59,92,190,85,80,> 125,Activity [13]: 90%
COC(=O)[C@H](C)NC(=O)c1ccc(NC(=O)c2[nH]c(C)c(Cl)c2Cl)c(OC2CCN(C(=O)OC(C)(C)C)CC2)c1,61,35,3,14,,27,43,,23,73,18,,,,,,> 25,Activity [3]: 83%
